Converted amounts (≈) assume the structure as drawn.
Test system: Candida albicans
Test: Antifungal activity against Candida albicans MTCC 227 after 48 hrs by tube dilution method
Assay type: functional
Settings: not given

| Compound | -logMIC |
| --- | --- |
| CCOC(=O)C1=C(C)NC(=S)NC1c1cn(C(=O)CNc2ccc(Cl)cc2)c2ccccc12 (stereo not given) | 1.59 |
| CCOC(=O)C1=C(C)NC(=O)NC1c1cn(C(=O)CNc2ccc(Cl)cc2)c2ccccc12 (stereo not given) | 1.57 |
| CCOC(=O)C1=C(C)NC(=S)NC1c1cn(C(=O)CNc2ccc([N+](=O)[O-])cc2)c2ccccc12 (stereo not given) | 1.9 |
| CCOC(=O)C1=C(C)NC(=S)NC1c1cn(C(=O)CNc2ccccc2N)c2ccccc12 (stereo not given) | 1.57 |
| OC(Cn1cncn1)(Cn1cncn1)c1ccc(F)cc1F [FLUCONAZOLE] | 2.64 |

Test system: Escherichia coli
Test: Antibacterial activity against Escherichia coli MTCC 1652 after 24 hrs by tube dilution method hrs followed by subculturing
Assay type: functional
Settings: not given

| Compound | MBC [uM/ml] |
| --- | --- |
| CCOC(=O)C1=C(C)NC(=S)NC1c1cn(C(=O)CNc2ccc(Cl)cc2)c2ccccc12 (stereo not given) | 0.05 |
| CCOC(=O)C1=C(C)NC(=O)NC1c1cn(C(=O)CNc2ccc(Cl)cc2)c2ccccc12 (stereo not given) | >0.11 |
| CCOC(=O)C1=C(C)NC(=S)NC1c1cn(C(=O)CNc2ccc([N+](=O)[O-])cc2)c2ccccc12 (stereo not given) | 0.03 |
| CCOC(=O)C1=C(C)NC(=S)NC1c1cn(C(=O)CNc2ccccc2N)c2ccccc12 (stereo not given) | 0.05 |
| CCn1cc(C(=O)O)c(=O)c2cc(F)c(N3CCNCC3)cc21 [NORFLOXACIN] | 0.019 |

Test system: MCF7
Test: cells
Settings: Homo sapiens, MCF7, 72 h
Description: Cytotoxicity against human MCF7 cells after 72 hrs by MTT assay

| Compound | IC50 [µg/mL] |
| --- | --- |
| CCOC(=O)C1=C(C)NC(=S)NC1c1cn(C(=O)CNc2ccc(Cl)cc2)c2ccccc12 (stereo not given) | 80 (≈ 166 µM) |
| CCOC(=O)C1=C(C)NC(=O)NC1c1cn(C(=O)CNc2ccc(Cl)cc2)c2ccccc12 (stereo not given) | 200 (≈ 428 µM) |
| CCOC(=O)C1=C(C)NC(=S)NC1c1cn(C(=O)CNc2ccc([N+](=O)[O-])cc2)c2ccccc12 (stereo not given) | > 1000 |
| CCOC(=O)C1=C(C)NC(=S)NC1c1cn(C(=O)CNc2ccccc2N)c2ccccc12 (stereo not given) | 100 (≈ 216 µM) |
| O=c1[nH]cc(F)c(=O)[nH]1 [FLUOROURACIL] | 0.67 (≈ 5.15 µM) |

Test system: Candida albicans
Test: Ratio of MIC to MFC for Candida albicans MTCC 227
Assay type: functional
Settings: not given

| Compound | Ratio |
| --- | --- |
| CCOC(=O)C1=C(C)NC(=S)NC1c1cn(C(=O)CNc2ccc(Cl)cc2)c2ccccc12 (stereo not given) | 3 |
| CCOC(=O)C1=C(C)NC(=O)NC1c1cn(C(=O)CNc2ccc(Cl)cc2)c2ccccc12 (stereo not given) | 3 |
| CCOC(=O)C1=C(C)NC(=S)NC1c1cn(C(=O)CNc2ccc([N+](=O)[O-])cc2)c2ccccc12 (stereo not given) | 3 |
| CCOC(=O)C1=C(C)NC(=S)NC1c1cn(C(=O)CNc2ccccc2N)c2ccccc12 (stereo not given) | 3 |

Test system: Bacillus subtilis
Test: Ratio of MIC to MBC for Bacillus subtilis MTCC 2063
Assay type: functional
Settings: not given

| Compound | Ratio |
| --- | --- |
| CCOC(=O)C1=C(C)NC(=S)NC1c1cn(C(=O)CNc2ccc(Cl)cc2)c2ccccc12 (stereo not given) | 3 |
| CCOC(=O)C1=C(C)NC(=O)NC1c1cn(C(=O)CNc2ccc(Cl)cc2)c2ccccc12 (stereo not given) | 3 |
| CCOC(=O)C1=C(C)NC(=S)NC1c1cn(C(=O)CNc2ccc([N+](=O)[O-])cc2)c2ccccc12 (stereo not given) | 3 |
| CCOC(=O)C1=C(C)NC(=S)NC1c1cn(C(=O)CNc2ccccc2N)c2ccccc12 (stereo not given) | 3 |

Test system: Bacillus subtilis
Test: Antibacterial activity against Bacillus subtilis MTCC 2063 after 24 hrs by tube dilution method hrs followed by subculturing
Assay type: functional
Settings: not given

| Compound | MBC [uM/ml] |
| --- | --- |
| CCOC(=O)C1=C(C)NC(=S)NC1c1cn(C(=O)CNc2ccc(Cl)cc2)c2ccccc12 (stereo not given) | >0.1 |
| CCOC(=O)C1=C(C)NC(=O)NC1c1cn(C(=O)CNc2ccc(Cl)cc2)c2ccccc12 (stereo not given) | >0.11 |
| CCOC(=O)C1=C(C)NC(=S)NC1c1cn(C(=O)CNc2ccc([N+](=O)[O-])cc2)c2ccccc12 (stereo not given) | >0.1 |
| CCOC(=O)C1=C(C)NC(=S)NC1c1cn(C(=O)CNc2ccccc2N)c2ccccc12 (stereo not given) | >0.11 |
| CCn1cc(C(=O)O)c(=O)c2cc(F)c(N3CCNCC3)cc21 [NORFLOXACIN] | 0.019 |

Test system: Escherichia coli
Test: Ratio of MIC to MBC for Escherichia coli MTCC 1652
Assay type: functional
Settings: not given

| Compound | Ratio |
| --- | --- |
| CCOC(=O)C1=C(C)NC(=S)NC1c1cn(C(=O)CNc2ccc(Cl)cc2)c2ccccc12 (stereo not given) | 3 |
| CCOC(=O)C1=C(C)NC(=O)NC1c1cn(C(=O)CNc2ccc(Cl)cc2)c2ccccc12 (stereo not given) | 3 |
| CCOC(=O)C1=C(C)NC(=S)NC1c1cn(C(=O)CNc2ccc([N+](=O)[O-])cc2)c2ccccc12 (stereo not given) | 3 |
| CCOC(=O)C1=C(C)NC(=S)NC1c1cn(C(=O)CNc2ccccc2N)c2ccccc12 (stereo not given) | 3 |

Test system: Aspergillus niger
Test: Ratio of MIC to MFC for Aspergillus niger MTCC 8189
Assay type: functional
Settings: not given

| Compound | Ratio |
| --- | --- |
| CCOC(=O)C1=C(C)NC(=S)NC1c1cn(C(=O)CNc2ccc(Cl)cc2)c2ccccc12 (stereo not given) | 3 |
| CCOC(=O)C1=C(C)NC(=O)NC1c1cn(C(=O)CNc2ccc(Cl)cc2)c2ccccc12 (stereo not given) | 3 |
| CCOC(=O)C1=C(C)NC(=S)NC1c1cn(C(=O)CNc2ccc([N+](=O)[O-])cc2)c2ccccc12 (stereo not given) | 3 |
| CCOC(=O)C1=C(C)NC(=S)NC1c1cn(C(=O)CNc2ccccc2N)c2ccccc12 (stereo not given) | 3 |

Test system: Aspergillus niger
Test: Antifungal activity against Aspergillus niger MTCC 8189 after 7 days by tube dilution method
Assay type: functional
Settings: not given

| Compound | -logMIC |
| --- | --- |
| CCOC(=O)C1=C(C)NC(=S)NC1c1cn(C(=O)CNc2ccc(Cl)cc2)c2ccccc12 (stereo not given) | 1.59 |
| CCOC(=O)C1=C(C)NC(=O)NC1c1cn(C(=O)CNc2ccc(Cl)cc2)c2ccccc12 (stereo not given) | 1.57 |
| CCOC(=O)C1=C(C)NC(=S)NC1c1cn(C(=O)CNc2ccc([N+](=O)[O-])cc2)c2ccccc12 (stereo not given) | 1.6 |
| CCOC(=O)C1=C(C)NC(=S)NC1c1cn(C(=O)CNc2ccccc2N)c2ccccc12 (stereo not given) | 1.57 |
| OC(Cn1cncn1)(Cn1cncn1)c1ccc(F)cc1F [FLUCONAZOLE] | 2.64 |

Test system: Staphylococcus aureus
Test: Antibacterial activity against Staphylococcus aureus MTCC 2901 after 24 hrs followed by subculturing
Assay type: functional
Settings: not given

| Compound | MBC [uM/ml] |
| --- | --- |
| CCOC(=O)C1=C(C)NC(=S)NC1c1cn(C(=O)CNc2ccc(Cl)cc2)c2ccccc12 (stereo not given) | >0.1 |
| CCOC(=O)C1=C(C)NC(=O)NC1c1cn(C(=O)CNc2ccc(Cl)cc2)c2ccccc12 (stereo not given) | >0.11 |
| CCOC(=O)C1=C(C)NC(=S)NC1c1cn(C(=O)CNc2ccc([N+](=O)[O-])cc2)c2ccccc12 (stereo not given) | >0.1 |
| CCOC(=O)C1=C(C)NC(=S)NC1c1cn(C(=O)CNc2ccccc2N)c2ccccc12 (stereo not given) | 0.11 |
| CCn1cc(C(=O)O)c(=O)c2cc(F)c(N3CCNCC3)cc21 [NORFLOXACIN] | 0.019 |

Test system: Escherichia coli
Test: Antibacterial activity against Escherichia coli MTCC 1652 after 24 hrs by tube dilution method
Assay type: functional
Settings: not given

| Compound | -logMIC |
| --- | --- |
| CCOC(=O)C1=C(C)NC(=S)NC1c1cn(C(=O)CNc2ccc(Cl)cc2)c2ccccc12 (stereo not given) | 2.19 |
| CCOC(=O)C1=C(C)NC(=O)NC1c1cn(C(=O)CNc2ccc(Cl)cc2)c2ccccc12 (stereo not given) | 1.27 |
| CCOC(=O)C1=C(C)NC(=S)NC1c1cn(C(=O)CNc2ccc([N+](=O)[O-])cc2)c2ccccc12 (stereo not given) | 2.5 |
| CCOC(=O)C1=C(C)NC(=S)NC1c1cn(C(=O)CNc2ccccc2N)c2ccccc12 (stereo not given) | 2.17 |
| CCn1cc(C(=O)O)c(=O)c2cc(F)c(N3CCNCC3)cc21 [NORFLOXACIN] | 2.61 |

Test system: Staphylococcus aureus
Test: Ratio of MIC to MBC for Staphylococcus aureus MTCC 2901
Assay type: functional
Settings: not given

| Compound | Ratio |
| --- | --- |
| CCOC(=O)C1=C(C)NC(=S)NC1c1cn(C(=O)CNc2ccc(Cl)cc2)c2ccccc12 (stereo not given) | 3 |
| CCOC(=O)C1=C(C)NC(=O)NC1c1cn(C(=O)CNc2ccc(Cl)cc2)c2ccccc12 (stereo not given) | 3 |
| CCOC(=O)C1=C(C)NC(=S)NC1c1cn(C(=O)CNc2ccc([N+](=O)[O-])cc2)c2ccccc12 (stereo not given) | 3 |
| CCOC(=O)C1=C(C)NC(=S)NC1c1cn(C(=O)CNc2ccccc2N)c2ccccc12 (stereo not given) | 3 |

Test system: not listed separately
Test: Partition coefficient, log P of the compound
Assay type: physicochemical
Settings: octanol/water

| Compound | logP |
| --- | --- |
| CCOC(=O)C1=C(C)NC(=S)NC1c1cn(C(=O)CNc2ccc(Cl)cc2)c2ccccc12 (stereo not given) | 3.44 |
| CCOC(=O)C1=C(C)NC(=O)NC1c1cn(C(=O)CNc2ccc(Cl)cc2)c2ccccc12 (stereo not given) | 2.04 |
| CCOC(=O)C1=C(C)NC(=S)NC1c1cn(C(=O)CNc2ccc([N+](=O)[O-])cc2)c2ccccc12 (stereo not given) | 2.88 |
| CCOC(=O)C1=C(C)NC(=S)NC1c1cn(C(=O)CNc2ccccc2N)c2ccccc12 (stereo not given) | 2.14 |

Test system: HCT-116
Test: cells
Settings: Homo sapiens, HCT-116, 72 h

| Compound | IC50 [µg/mL] |
| --- | --- |
| O=c1[nH]cc(F)c(=O)[nH]1 [FLUOROURACIL] | 6 (≈ 46.1 µM) |

Test system: Bacillus subtilis
Test: Antibacterial activity against Bacillus subtilis MTCC 2063 after 24 hrs by tube dilution method
Assay type: functional
Settings: not given

| Compound | -logMIC |
| --- | --- |
| CCOC(=O)C1=C(C)NC(=S)NC1c1cn(C(=O)CNc2ccc(Cl)cc2)c2ccccc12 (stereo not given) | 1.59 |
| CCOC(=O)C1=C(C)NC(=O)NC1c1cn(C(=O)CNc2ccc(Cl)cc2)c2ccccc12 (stereo not given) | 1.27 |
| CCOC(=O)C1=C(C)NC(=S)NC1c1cn(C(=O)CNc2ccc([N+](=O)[O-])cc2)c2ccccc12 (stereo not given) | 1.6 |
| CCOC(=O)C1=C(C)NC(=S)NC1c1cn(C(=O)CNc2ccccc2N)c2ccccc12 (stereo not given) | 1.57 |
| CCn1cc(C(=O)O)c(=O)c2cc(F)c(N3CCNCC3)cc21 [NORFLOXACIN] | 2.61 |

Test system: Staphylococcus aureus
Test: Antibacterial activity against Staphylococcus aureus MTCC 2901 after 24 hrs by tube dilution method
Assay type: functional
Settings: not given

| Compound | -logMIC |
| --- | --- |
| CCOC(=O)C1=C(C)NC(=S)NC1c1cn(C(=O)CNc2ccc(Cl)cc2)c2ccccc12 (stereo not given) | 1.59 |
| CCOC(=O)C1=C(C)NC(=O)NC1c1cn(C(=O)CNc2ccc(Cl)cc2)c2ccccc12 (stereo not given) | 1.57 |
| CCOC(=O)C1=C(C)NC(=S)NC1c1cn(C(=O)CNc2ccc([N+](=O)[O-])cc2)c2ccccc12 (stereo not given) | 1.6 |
| CCOC(=O)C1=C(C)NC(=S)NC1c1cn(C(=O)CNc2ccccc2N)c2ccccc12 (stereo not given) | 1.87 |
| CCn1cc(C(=O)O)c(=O)c2cc(F)c(N3CCNCC3)cc21 [NORFLOXACIN] | 2.61 |

Test system: Candida albicans
Test: Antifungal activity against Candida albicans MTCC 227 after 48 hrs by tube dilution method hrs followed by subculturing
Assay type: functional
Settings: not given

| Compound | MFC [uM/ml] |
| --- | --- |
| CCOC(=O)C1=C(C)NC(=S)NC1c1cn(C(=O)CNc2ccc(Cl)cc2)c2ccccc12 (stereo not given) | >0.1 |
| CCOC(=O)C1=C(C)NC(=O)NC1c1cn(C(=O)CNc2ccc(Cl)cc2)c2ccccc12 (stereo not given) | >0.11 |
| CCOC(=O)C1=C(C)NC(=S)NC1c1cn(C(=O)CNc2ccc([N+](=O)[O-])cc2)c2ccccc12 (stereo not given) | 0.1 |
| CCOC(=O)C1=C(C)NC(=S)NC1c1cn(C(=O)CNc2ccccc2N)c2ccccc12 (stereo not given) | >0.11 |
| OC(Cn1cncn1)(Cn1cncn1)c1ccc(F)cc1F [FLUCONAZOLE] | 0.04 |

Test system: Aspergillus niger
Test: Antifungal activity against Aspergillus niger MTCC 8189 after 7 days by tube dilution method hrs followed by subculturing
Assay type: functional
Settings: not given

| Compound | MFC [uM/ml] |
| --- | --- |
| CCOC(=O)C1=C(C)NC(=S)NC1c1cn(C(=O)CNc2ccc(Cl)cc2)c2ccccc12 (stereo not given) | >0.1 |
| CCOC(=O)C1=C(C)NC(=O)NC1c1cn(C(=O)CNc2ccc(Cl)cc2)c2ccccc12 (stereo not given) | >0.11 |
| CCOC(=O)C1=C(C)NC(=S)NC1c1cn(C(=O)CNc2ccc([N+](=O)[O-])cc2)c2ccccc12 (stereo not given) | >0.1 |
| CCOC(=O)C1=C(C)NC(=S)NC1c1cn(C(=O)CNc2ccccc2N)c2ccccc12 (stereo not given) | 0.11 |
| OC(Cn1cncn1)(Cn1cncn1)c1ccc(F)cc1F [FLUCONAZOLE] | 0.04 |
